Earlier results as cited in paper PMC2119397 (The Journal of Experimental Medicine, 1992).
Read-outs that look alike come from different tables or passages of the source.

System: DR1

Sequence | DR1 binding (in words) | DR1 binding (in words) (ref Sinigaglia, F., unpublished observation)
PKYVKQNTLKLAT [HA 307-319] | DR1 binding | 
NALYKMNAVAKAA [NNX 83-91] |  | DR1 binding
TT 830-843: DR1-binding synthetic peptide of tetanus toxoid (QYIKANSKFIGITE; UniProt P04958 830-843, looked up, fragment) | DRl-binding | 
